Reference: patent publication US20140128357A1, “METHODS OF PRODUCING AND USING BRASSINOSTEROIDS TO PROMOTE GROWTH, REPAIR AND MAINTENANCE OF SKELETAL MUSCLE AND SKIN” (Rutgers University, priority 2010, published 2014)

How the values were obtained:
[1] = Body composition and blood biochemistry, rats on normal diet, 24 d oral HB (Protocol 1); format: in vivo, rat; details: for Bone mineral content / Fat mass / Lean mass / change in fat mass vs control / increase in lean body mass vs control: DEXA
Method: (§1) Six-week-old male Wistar rats (180-220 g, Charles River Laboratories, MA) were housed in individual chambers in a room maintained at a constant room temperature with 12 h light-dark cycle. Animals had free access to food and water. Animals were allowed to adapt to new conditions for 7 d and handling the animals was carried out daily during this time to reduce the stress of physical manipulation. Animals were randomized into groups according to bodyweight 1 d prior to dosing.
The body weight of each animal and the total amount of food consumed (accounted for spillage) were recorded every 2 d for the duration of the experiment. At the end of the experiment, blood was collected by heart puncture after CO2 inhalation and animal body composition was assessed by DEXA dual-energy X-ray absorptiometry analysis using a Lunar Prodigy Densitometer (GE Healthcare, Waukesha, Wis.). At necropsy, tissue weights were recorded. Tissue samples were collected by snap-freezing in liquid nitrogen and stored at −80° C. for further studies. Total RNA was isolated using Trizol, its quantity and purity were determined using a NanoDrop (Nanodrop Technologies, Wilmington, Del.).
(§2) Blood samples were taken from overnight-fasted animals by heart puncture, collected in EDTA-coated tubes, centrifuged 1,500 g for 20 min, and separated plasma was stored at −80° C. until analysis. Glucose was measured in blood samples using a Lifescan glucometer (Johnson and Johnson, New Brunswick, N.J.). […] Plasma triglycerides and total cholesterol were measured by enzymatic colorimetric assays (Wako Diagnostics, Richmond, Va.). Total testosterone in plasma samples was quantified by an ELISA assay (DRG Diagnostics, Marburg, Germany).

[2] = Body composition and blood biochemistry, rats on high-protein diet, 24 d oral HB (Protocol 2); format: in vivo, rat; details: for Bone mineral content / Fat mass / Lean mass: DEXA
Method: as §1
Protocol 2: Three groups of Wistar rats (n=8), fed a high-protein diet containing 39.4% protein, 10.0% fat, 4.3% fiber, and 37.0% carbohydrates, resulting in 3.93 kcal/g energy value (#5779 diet, Testdiet/Purina, Richmond, Ind.), were gavaged daily for 24 d with 1 ml of vehicle (5% DMSO in corn oil), 20 or 60 mg/kg HB. All procedures and measurements followed protocol 1.
as §2

[3] = test system: TNF-α, TGF-β and ICAM-1 mRNA in wounds; assay: Cytokine and chemokine mRNA in wound tissue, qPCR; format: in vivo; details: day 10 post-wounding, 10 μg/mouse topically
Method: Cutaneous would healing is characterized by an initial inflammatory response. To evaluate the effect of brassinosteroids on inflammation in wound healing, mRNA levels of proinflammatory cytokines TNF-α and TGF-β and an adhesion chemokine ICAM-1 were measured in the wound tissue of control and treated mice on day 10 post-wounding and treatment with HB, positive control (CGS-21680), or negative control (vehicle).
Total RNA was extracted from fibroblasts using Trizol (Invitrogen, Carlsbad, Calif.). RNA was quantified spectrophotometrically by absorbance measurements at 260 and 280 nm using the NanoDrop reader (NanoDrop Technologies, Wilmington, Del.). Quality of RNA was assessed by gel electrophoresis. RNA was then treated with DnaseI (Invitrogen, Carlsbad, Calif.) to remove traces of DNA contamination and the cDNAs were synthesized with 2.5 μg of RNA using Stratascript reverse transcriptase (Stratagene, Santa Clara, Calif.) according to the manufacturers' protocols. Quantitative PCR was performed in duplicate essentially as described previously (Komarnytsky et al., Int. J. Obes. 35: 236-43, 2011) using the following gene-specific primers (IDT, Coralville, Iowa) selected using the Primer Express 2.0 software (Applied Biosystems, Foster City, Calif.): β-actin, forward primer 5′-GGGAAATCGTGCGTGACATT-3′ (SEQ ID NO: 5), and reverse primer 5′-GCG GCA GTG GCC ATC TC-3′ (SEQ ID NO: 6). Target gene expression of the housekeeping gene β-actin was assigned a value of 1. Samples were subjected to a melting curve analysis to confirm the amplification specificity. The relative change in the […] with respect to the endogenous control gene was determined using 2ΔΔCT method (Winer et al., Anal. Biochem. 270: 41-9, 1999).

[4] = test system: collagen and elastin in skin; assay: Collagen and elastin in skin of rats given oral HB (Example 16); format: in vivo, rat; details: 20 and 60 mg/kg oral daily 24 d, written in present tense
Method: To evaluate the potential anabolic effects of plant brassinosteroids on the skin of animals, 20 and 60 mg/kg body weight of HB (HB20 and HB60, respectively) are orally administered daily to healthy rats fed normal diet for 24 d.
Collagen and elastin production are measured in the skin of animals treated with HB versus their control counterparts. Protein degradation of collagen and elastin is measured in the skin of animals treated with HB versus their control counterparts, e.g., by collagen or elastin ELISAs. The amount of collagen and elastin protein present in the skin of animals treated with HB is measured versus their control counterparts.

CC[C@@H](C(C)C)[C@H](O)[C@@H](O)[C@@H](C)[C@H]1CC[C@H]2[C@@H]3COC(=O)[C@H]4C[C@H](O)[C@H](O)C[C@]4(C)[C@H]3CC[C@]12C [Compound 1, (22S,23S,24S)-2α,3α,22,23-tetrahydroxy-24 ethyl-β-homo-7-oxo-5α-cholestane-6-one]
Body weight ([1]; 20 mg/kg oral daily 24 d): 324.3 ± 11.5 g
Body weight gain ([1]; 20 mg/kg oral daily 24 d): 126.6 ± 7.1 g
Gastrocnemius muscle ([1]; 20 mg/kg oral daily 24 d): 2.07 ± 0.06 g
increase in gastrocnemius muscle mass ([1]; 20 mg/kg oral daily 24 d): 15.6%
increase of total body weight gain relative to initial body weight, compared with vehicle-treated controls ([1]; 20 mg/kg oral daily 24 d): 18.3%
Bone mineral content ([1]; 20 mg/kg oral daily 24 d): 7.0 ± 0.3 g
Fat mass ([1]; 20 mg/kg oral daily 24 d): 49.0 ± 4.3 g
Lean mass ([1]; 20 mg/kg oral daily 24 d): 268.3 ± 9.0 g
change in fat mass vs control ([1]; 20 mg/kg oral daily 24 d): −3.9%
increase in lean body mass vs control ([1]; 20 mg/kg oral daily 24 d): 7.0%
Body weight ([1]; 60 mg/kg oral daily 24 d): 342.3 ± 4.9 g
Body weight gain ([1]; 60 mg/kg oral daily 24 d): 135.7 ± 9.4 g
Gastrocnemius muscle ([1]; 60 mg/kg oral daily 24 d): 2.13 ± 0.12 g
increase in gastrocnemius muscle mass ([1]; 60 mg/kg oral daily 24 d): 19.0%
increase of total body weight gain relative to initial body weight, compared with vehicle-treated controls ([1]; 60 mg/kg oral daily 24 d): 26.8%
Bone mineral content ([1]; 60 mg/kg oral daily 24 d): 7.4 ± 0.1 g
Fat mass ([1]; 60 mg/kg oral daily 24 d): 48.5 ± 3.8 g
Lean mass ([1]; 60 mg/kg oral daily 24 d): 286.5 ± 4.3 g
change in fat mass vs control ([1]; 60 mg/kg oral daily 24 d): −4.9%
increase in lean body mass vs control ([1]; 60 mg/kg oral daily 24 d): 14.2%
Body weight ([2]; 20 mg/kg oral daily 24 d): 337.6 ± 6.4 g
Body weight gain ([2]; 20 mg/kg oral daily 24 d): 98.3 ± 5.2 g
Gastrocnemius muscle ([2]; 20 mg/kg oral daily 24 d): 1.98 ± 0.01 g
Bone mineral content ([2]; 20 mg/kg oral daily 24 d): 7.5 ± 0.2 g
Fat mass ([2]; 20 mg/kg oral daily 24 d): 68.6 ± 3.1 g
Lean mass ([2]; 20 mg/kg oral daily 24 d): 246.8 ± 7.4 g
Body weight ([2]; 60 mg/kg oral daily 24 d): 335.8 ± 5.1 g
Body weight gain ([2]; 60 mg/kg oral daily 24 d): 91.1 ± 3.2 g
Gastrocnemius muscle ([2]; 60 mg/kg oral daily 24 d): 2.17 ± 0.03 g
Bone mineral content ([2]; 60 mg/kg oral daily 24 d): 7.4 ± 0.1 g
Fat mass ([2]; 60 mg/kg oral daily 24 d): 61.2 ± 3.8 g
Lean mass ([2]; 60 mg/kg oral daily 24 d): 258.6 ± 2.7 g
ICAM-1 mRNA in wound tissue [3]: significant suppression
TGF-β mRNA in wound tissue [3]: weak effect on the downregulation
TNF-α mRNA in wound tissue [3]: nearly complete downregulation
collagen and elastin production in skin [4]: increases collagen and elastin production in skin
